In patent publication US20020137929A1, “1 - (3-heterocyclylphenyl) isothiourea, -isourea, -guanidine and -amidine herbicidal agents” (Intellectual Property Department, BASF Aktiengesellschaft, priority 1998, published 2002):

Key:
[1] = test system: ORYSAT (Rice, Tebonnet); assay: Postemergence herbicidal evaluation; format: in vivo, Oryza sativa, (L.) Tebonnet; conditions: postemergence
How it was run: (§1)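 Herbicidal effect was judged by eye on a 0–9 scale covering stand, vigor, deformity, size and chlorosis, compared with controls, four to five weeks after seedlings about two weeks old were sprayed (40 psi, ~0.0156–0.500 kg/ha).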

[2] = test system: ZEAMX (Corn, Field); assay: Preemergence herbicidal evaluation; format: in vivo, Zea mays; conditions: rated 4-5 weeks after treatment
How it was run: (§2)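 Sown cups got a single aqueous acetone spray of test compound (roughly 0.0156–0.500 kg/ha) before seedlings emerged. Evaluation, 4–5 weeks on, used a 0–9 visual scale covering plant stand, vigor, size, malformation, chlorosis and general appearance compared with controls.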

[3] = test system: ORYSAT (Rice, Tebonnet); assay: Preemergence herbicidal evaluation; format: in vivo, Oryza sativa, (L.) Tebonnet; conditions: rated 4-5 weeks after treatment
How it was run: as §2

[4] = test system: ECHCG (Barnyardgrass); assay: Postemergence herbicidal evaluation; format: in vivo, Echinochloa crus-galli; conditions: postemergence
How it was run: as §1

[5] = test system: GALAP (Galium); assay: Preemergence herbicidal evaluation; format: in vivo, Galium aparine; conditions: rated 4-5 weeks after treatment
How it was run: as §2

[6] = test system: GLXMAW (Soybean, Williams); assay: Preemergence herbicidal evaluation; format: in vivo, Glycine max, (L.) Merr. cv Williams; conditions: rated 4-5 weeks after treatment
How it was run: as §2

[7] = test system: SETVI (Foxtail, Green); assay: Preemergence herbicidal evaluation; format: in vivo, Setaria viridis; conditions: rated 4-5 weeks after treatment
How it was run: as §2

[8] = test system: CASOB (Sicklepod); assay: Postemergence herbicidal evaluation; format: in vivo, Cassia obtusifolia; conditions: postemergence
How it was run: as §1

[9] = test system: TRZAWR (Wheat, Winter, cv Riband); assay: Preemergence herbicidal evaluation; format: in vivo, Triticum aestivum; conditions: rated 4-5 weeks after treatment
How it was run: as §2

[10] = test system: CHEAL (Lambsquarters, Common); assay: Postemergence herbicidal evaluation; format: in vivo, Chenopodium album; conditions: postemergence
How it was run: as §1

[11] = test system: CYPIR (Rice Flatsedge); assay: Preemergence weed control under flooded paddy conditions; format: in vivo, Cyperus iria; conditions: rated 3-4 weeks after treatment
How it was run: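 Herbicidal effect is scored visually on a 0-9 scale against an untreated control, three to four weeks after compounds are pipetted into the flood water (1.5 to 3 cm deep) over seeds planted in silt loam at 0.5 cm depth. Rates: about 0.0313 to 0.500 kg/ha.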

[12] = test system: SAGPY (Arrowhead (Pygmaea)); assay: as above; format: in vivo, Sagittaria pygmaea; conditions: rated 3-4 weeks after treatment
How it was run: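 Seeds or propagules sown in silt loam kept flooded 1.5-3 cm; compounds in 50/50 acetone/water pipetted into flood water at about 0.0313 to 0.500 kg/ha. Greenhouse; visual 0-9 rating versus untreated control 3-4 weeks after treatment.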

[13] = test system: CYPSE (Flatsedge); assay: Postemergence weed control under flooded paddy conditions; format: in vivo, Cyperus serotinus; conditions: postemergence weeds, rated 3 to 4 weeks after treatment
How it was run: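 Herbicidal effect is judged by eye on a 0–9 scale versus control, 3–4 weeks after dosing. Dosing is into flood water kept 1.5–3 cm over the soil, at about 0.0313–0.500 kg/ha in aqueous/acetone 50/50 v/v, on 3–5 cm weeds and 1.5–2.5-leaf rice seedlings.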

COC(=O)[C@H](Cc1ccc([N+](=O)[O-])cc1)N1C(=O)CSC1=Nc1cc(-n2c(=O)cc(C(F)(F)F)n(C)c2=O)c(F)cc1Cl [Compound 78, Methyl 2-{{2-chloro-5-[3,6-dihydro-3-methyl-2,6-dioxo-4-(trifluoromethyl)-1(2H)-pyrimidinyl]-4-fluorophenyl}imino}-4-oxo-α-(p-nitrobenzyl)-3-thiazolidineacetate, L-]
ORYSAT herbicidal rating ([1]; rate 0.0158 kg/ha): 3.0
ORYSAT herbicidal rating ([1]; rate 0.0315 kg/ha): 3.5
ORYSAT herbicidal rating ([1]; rate 0.0630 kg/ha): 4.0
Preemergence herbicidal rating ZEAMX ([2]; rate 0.0156 kg/ha): 0.0
Preemergence herbicidal rating ZEAMX ([2]; rate 0.0313 kg/ha): 0.0
Preemergence herbicidal rating ZEAMX ([2]; rate 0.0625 kg/ha): 0.0
Preemergence herbicidal rating ZEAMX ([2]; rate 0.1250 kg/ha): 0.0
Preemergence herbicidal rating ZEAMX ([2]; rate 0.2500 kg/ha): 1.0
Preemergence herbicidal rating ORYSAT ([3]; rate 0.0156 kg/ha): 0.0
Preemergence herbicidal rating ORYSAT ([3]; rate 0.0313 kg/ha): 0.0
Preemergence herbicidal rating ORYSAT ([3]; rate 0.0625 kg/ha): 0.0
Preemergence herbicidal rating ORYSAT ([3]; rate 0.1250 kg/ha): 0.0
Preemergence herbicidal rating ORYSAT ([3]; rate 0.2500 kg/ha): 0.0
ECHCG herbicidal rating ([4]; rate 0.0158 kg/ha): 1.0
ECHCG herbicidal rating ([4]; rate 0.0315 kg/ha): 1.0
ECHCG herbicidal rating ([4]; rate 0.0630 kg/ha): 1.0
Preemergence herbicidal rating GALAP ([5]; rate 0.0156 kg/ha): 0.0
Preemergence herbicidal rating GALAP ([5]; rate 0.0313 kg/ha): 0.0
Preemergence herbicidal rating GALAP ([5]; rate 0.0625 kg/ha): 0.0
Preemergence herbicidal rating GALAP ([5]; rate 0.1250 kg/ha): 3.0
Preemergence herbicidal rating GALAP ([5]; rate 0.2500 kg/ha): 2.0
Preemergence herbicidal rating GLXMAW ([6]; rate 0.0156 kg/ha): 1.0
Preemergence herbicidal rating GLXMAW ([6]; rate 0.0313 kg/ha): 0.0
Preemergence herbicidal rating GLXMAW ([6]; rate 0.0625 kg/ha): 0.0
Preemergence herbicidal rating GLXMAW ([6]; rate 0.1250 kg/ha): 0.0
Preemergence herbicidal rating GLXMAW ([6]; rate 0.2500 kg/ha): 1.0
Preemergence herbicidal rating SETVI ([7]; rate 0.0156 kg/ha): 0.0
Preemergence herbicidal rating SETVI ([7]; rate 0.0313 kg/ha): 0.0
Preemergence herbicidal rating SETVI ([7]; rate 0.0625 kg/ha): 0.0
Preemergence herbicidal rating SETVI ([7]; rate 0.1250 kg/ha): 0.0
Preemergence herbicidal rating SETVI ([7]; rate 0.2500 kg/ha): 6.0
CASOB herbicidal rating ([8]; rate 0.0158 kg/ha): 1.0
CASOB herbicidal rating ([8]; rate 0.0315 kg/ha): 1.0
CASOB herbicidal rating ([8]; rate 0.0630 kg/ha): 3.0
Preemergence herbicidal rating TRZAWR ([9]; rate 0.0156 kg/ha): 0.0
Preemergence herbicidal rating TRZAWR ([9]; rate 0.0313 kg/ha): 0.0
Preemergence herbicidal rating TRZAWR ([9]; rate 0.0625 kg/ha): 0.0
Preemergence herbicidal rating TRZAWR ([9]; rate 0.1250 kg/ha): 0.0
Preemergence herbicidal rating TRZAWR ([9]; rate 0.2500 kg/ha): 0.0
CHEAL herbicidal rating ([10]; rate 0.0158 kg/ha): 9.0
CHEAL herbicidal rating ([10]; rate 0.0315 kg/ha): 9.0
CHEAL herbicidal rating ([10]; rate 0.0630 kg/ha): 9.0
CYPIR herbicidal effect rating ([11]; 0.0313 kg/ha): 5.0
CYPIR herbicidal effect rating ([11]; 0.0625 kg/ha): 5.0
CYPIR herbicidal effect rating ([11]; 0.1250 kg/ha): 6.0
CYPIR herbicidal effect rating ([11]; 0.2500 kg/ha): 9.0
SAGPY herbicidal effect rating ([12]; 0.0313 kg/ha): 0.0
SAGPY herbicidal effect rating ([12]; 0.0625 kg/ha): 0.0
SAGPY herbicidal effect rating ([12]; 0.1250 kg/ha): 2.0
SAGPY herbicidal effect rating ([12]; 0.2500 kg/ha): 4.0
Herbicidal rating CYPSE ([13]; Rate 0.0313 kg/ha): 6.0
Herbicidal rating CYPSE ([13]; Rate 0.0625 kg/ha): 6.0
Herbicidal rating CYPSE ([13]; Rate 0.1250 kg/ha): 7.0
Herbicidal rating CYPSE ([13]; Rate 0.2500 kg/ha): 9.0

CCOC(=O)[C@H](C)N1C(=O)CSC1=Nc1cc(-n2c(=O)cc(C(F)(F)F)n(C)c2=O)c(F)cc1Cl [Compound 76, Ethyl 2-{{2-chloro-5-[3,6-dihydro-3-methyl-2,6-dioxo-4-(trifluoromethyl)-1(2H)-pyrimidinyl]-4-fluorophenyl}imino}-α-methyl-4-oxo-3-thiazolidineacetate, L-]
ORYSAT herbicidal rating ([1]; rate 0.0158 kg/ha): 3.0
ORYSAT herbicidal rating ([1]; rate 0.0315 kg/ha): 4.0
ORYSAT herbicidal rating ([1]; rate 0.0630 kg/ha): 5.0
Preemergence herbicidal rating ZEAMX ([2]; rate 0.0156 kg/ha): 0.0
Preemergence herbicidal rating ZEAMX ([2]; rate 0.0313 kg/ha): 1.0
Preemergence herbicidal rating ZEAMX ([2]; rate 0.0625 kg/ha): 5.0
Preemergence herbicidal rating ZEAMX ([2]; rate 0.1250 kg/ha): 7.0
Preemergence herbicidal rating ZEAMX ([2]; rate 0.2500 kg/ha): 7.0
Preemergence herbicidal rating ORYSAT ([3]; rate 0.0156 kg/ha): 0.0
Preemergence herbicidal rating ORYSAT ([3]; rate 0.0313 kg/ha): 0.0
Preemergence herbicidal rating ORYSAT ([3]; rate 0.0625 kg/ha): 3.0
Preemergence herbicidal rating ORYSAT ([3]; rate 0.1250 kg/ha): 4.0
Preemergence herbicidal rating ORYSAT ([3]; rate 0.2500 kg/ha): 5.0
ECHCG herbicidal rating ([4]; rate 0.0158 kg/ha): 1.0
ECHCG herbicidal rating ([4]; rate 0.0315 kg/ha): 1.0
ECHCG herbicidal rating ([4]; rate 0.0630 kg/ha): 2.0
Preemergence herbicidal rating GALAP ([5]; rate 0.0156 kg/ha): 0.0
Preemergence herbicidal rating GALAP ([5]; rate 0.0313 kg/ha): 0.0
Preemergence herbicidal rating GALAP ([5]; rate 0.0625 kg/ha): 0.0
Preemergence herbicidal rating GALAP ([5]; rate 0.1250 kg/ha): 1.0
Preemergence herbicidal rating GALAP ([5]; rate 0.2500 kg/ha): 9.0
Preemergence herbicidal rating GLXMAW ([6]; rate 0.0156 kg/ha): 0.0
Preemergence herbicidal rating GLXMAW ([6]; rate 0.0313 kg/ha): 0.0
Preemergence herbicidal rating GLXMAW ([6]; rate 0.0625 kg/ha): 3.0
Preemergence herbicidal rating GLXMAW ([6]; rate 0.1250 kg/ha): 6.0
Preemergence herbicidal rating GLXMAW ([6]; rate 0.2500 kg/ha): 9.0
Preemergence herbicidal rating SETVI ([7]; rate 0.0156 kg/ha): 0.0
Preemergence herbicidal rating SETVI ([7]; rate 0.0313 kg/ha): 6.0
Preemergence herbicidal rating SETVI ([7]; rate 0.0625 kg/ha): 7.0
Preemergence herbicidal rating SETVI ([7]; rate 0.1250 kg/ha): 9.0
Preemergence herbicidal rating SETVI ([7]; rate 0.2500 kg/ha): 9.0
CASOB herbicidal rating ([8]; rate 0.0158 kg/ha): 1.0
CASOB herbicidal rating ([8]; rate 0.0315 kg/ha): 4.0
CASOB herbicidal rating ([8]; rate 0.0630 kg/ha): 5.0
Preemergence herbicidal rating TRZAWR ([9]; rate 0.0156 kg/ha): 0.0
Preemergence herbicidal rating TRZAWR ([9]; rate 0.0313 kg/ha): 0.0
Preemergence herbicidal rating TRZAWR ([9]; rate 0.0625 kg/ha): 3.0
Preemergence herbicidal rating TRZAWR ([9]; rate 0.1250 kg/ha): 7.0
Preemergence herbicidal rating TRZAWR ([9]; rate 0.2500 kg/ha): 9.0
CHEAL herbicidal rating ([10]; rate 0.0158 kg/ha): 3.0
CHEAL herbicidal rating ([10]; rate 0.0315 kg/ha): 7.0
CHEAL herbicidal rating ([10]; rate 0.0630 kg/ha): 7.0
CYPIR herbicidal effect rating ([11]; 0.0313 kg/ha): 0.0
CYPIR herbicidal effect rating ([11]; 0.0625 kg/ha): 0.0
CYPIR herbicidal effect rating ([11]; 0.1250 kg/ha): 0.0
CYPIR herbicidal effect rating ([11]; 0.2500 kg/ha): 6.0
SAGPY herbicidal effect rating ([12]; 0.0313 kg/ha): 0.0
SAGPY herbicidal effect rating ([12]; 0.0625 kg/ha): 0.0
SAGPY herbicidal effect rating ([12]; 0.1250 kg/ha): 4.0
SAGPY herbicidal effect rating ([12]; 0.2500 kg/ha): 4.0
Herbicidal rating CYPSE ([13]; Rate 0.0313 kg/ha): 2.0
Herbicidal rating CYPSE ([13]; Rate 0.0625 kg/ha): 2.0
Herbicidal rating CYPSE ([13]; Rate 0.1250 kg/ha): 2.0
Herbicidal rating CYPSE ([13]; Rate 0.2500 kg/ha): 3.0
